From patent US20260256792A1, “TREATMENT OF CHRONIC SPONTANEOUS URTICARIA BY ADMINISTERING (R)-2-[3-[4-AMINO-3-(2-FLUORO-4-PHENOXY-PHENYL)PYRAZOLO[3,4-D]PYRIMIDIN-1-YL]PIPERIDINE-1-CARBONYL]-4-METHYL-4-[4-(OXETAN-3-YL)PIPERAZIN-1-YL]PENT-2-ENENITRILE” (priority 2023, published 2026)

Test system: moderate-to-severe chronic spontaneous urticaria (CSU)
Test: Phase 2 CSU study: itch severity score over 7 days (ISS7)
Format: in vivo, human
From the text: The study comprises a 12 week, randomized, double-blind, placebo-controlled, multi-center, dose-ranging efficacy and safety phase, followed by a 40 week open label extension (OLE) phase (see FIG. 1). The study consists of three phases and an optional OLE phase. […] Clinically, CSU is characterized by the spontaneous and recurrent appearance of pruritic hives. The proposed primary endpoints were the UAS7 at Week 12 in EU and EU reference countries and the ISS7 in the US. Regardless of where a participant was from, all assessments were the same. The UAS7 score is a composite score containing both the HSS7 and the ISS7. This allowed a global assessment of the two key components of urticaria: hives and itch. […] The UAS is a validated PRO measure. […] The daily UAS scores range from 0 to 6 point/day. […] Patients were to complete the UAS using the e-diary. […] The following secondary endpoints were to be analyzed using the same approach as for the primary endpoint: • Change from baseline in UAS7 at Week 4 • Change from baseline in UAS7 at Week 12 (for US and US reference countries) • Change from baseline in ISS7 at Week 12 (except US and US reference countries) • Change from baseline in HSS7 at Week 12

[1] = Week 10, 400 mg QPM, Omalizumab-Naïve
[2] = Week 10, 400 mg QPM, Prior Omalizumab Use
[3] = Week 10, 400 mg TID, Omalizumab-Naïve
[4] = Week 10, 400 mg TID, Prior Omalizumab Use
[5] = Week 11, 400 mg BID, Omalizumab-Naïve
[6] = Week 11, 400 mg BID, Prior Omalizumab Use
[7] = Week 11, 400 mg QPM, Omalizumab-Naïve
[8] = Week 11, 400 mg QPM, Prior Omalizumab Use
[9] = Week 11, 400 mg TID, Omalizumab-Naïve
[10] = Week 11, 400 mg TID, Prior Omalizumab Use
[11] = Week 12, 400 mg BID, Omalizumab-Naïve
[12] = Week 12, 400 mg BID, Prior Omalizumab Use
[13] = Week 12, 400 mg QPM, Omalizumab-Naïve
[14] = Week 12, 400 mg QPM, Prior Omalizumab Use
[15] = Week 12, 400 mg TID, Omalizumab-Naïve
[16] = Week 12, 400 mg TID, Prior Omalizumab Use

CC(C)(C=C(C#N)C(=O)N1CCC[C@@H](n2nc(-c3ccc(Oc4ccccc4)cc3F)c3c(N)ncnc32)C1)N1CCN(C2COC2)CC1 [rilzabrutinib, (R)-2-[3-[4-amino-3-(2-fluoro-4-phenoxy-phenyl)pyrazolo[3,4-d]pyrimidin-1-yl]piperidine-1-carbonyl]-4-methyl-4-[4-(oxetan-3-yl)piperazin-1-yl]pent-2-enenitrile]
ISS7 Change from baseline Median [1]: −6.00
ISS7 Mean (SD) [1]: 10.43 (5.30)
ISS7 Median [1]: 9.50
ISS7 Percent change from baseline Mean (SD) [1]: −37.25 (29.62) %
ISS7 Percent change from baseline Median [1]: −39.23%
ISS7 Change from baseline Mean (SD) [2]: −13.00 (NC)
ISS7 Change from baseline Median [2]: −13.00
ISS7 Mean (SD) [2]: 8.00 (NC)
ISS7 Median [2]: 8.00
ISS7 Percent change from baseline Mean (SD) [2]: −61.90 (NC) %
ISS7 Percent change from baseline Median [2]: −61.90%
ISS7 Change from baseline Mean (SD) [3]: −9.55 (5.37)
ISS7 Change from baseline Median [3]: −10.00
ISS7 Mean (SD) [3]: 6.75 (5.25)
ISS7 Median [3]: 7.00
ISS7 Percent change from baseline Mean (SD) [3]: −58.27 (30.87) %
ISS7 Percent change from baseline Median [3]: −57.19%
ISS7 Change from baseline Mean (SD) [4]: −12.17 (8.26)
ISS7 Change from baseline Median [4]: −13.00
ISS7 Mean (SD) [4]: 4.83 (6.85)
ISS7 Median [4]: 3.00
ISS7 Percent change from baseline Mean (SD) [4]: −68.55 (36.38) %
ISS7 Percent change from baseline Median [4]: −79.76%
ISS7 Change from baseline Mean (SD) [5]: −7.51 (6.18)
ISS7 Change from baseline Median [5]: −8.00
ISS7 Mean (SD) [5]: 7.93 (6.94)
ISS7 Median [5]: 7.00
ISS7 Percent change from baseline Mean (SD) [5]: −49.75 (40.18) %
ISS7 Percent change from baseline Median [5]: −57.14%
ISS7 Change from baseline Mean (SD) [6]: −10.43 (9.36)
ISS7 Change from baseline Median [6]: −13.00
ISS7 Mean (SD) [6]: 6.77 (8.14)
ISS7 Median [6]: 2.00
ISS7 Percent change from baseline Mean (SD) [6]: −58.05 (49.51) %
ISS7 Percent change from baseline Median [6]: −86.67%
ISS7 Change from baseline Mean (SD) [7]: −6.07 (4.83)
ISS7 Change from baseline Median [7]: −6.00
ISS7 Mean (SD) [7]: 11.03 (5.55)
ISS7 Percent change from baseline Mean (SD) [7]: −36.12 (28.12) %
ISS7 Percent change from baseline Median [7]: −30.00%
ISS7 Change from baseline Mean (SD) [8]: −12.00 (NC)
ISS7 Change from baseline Median [8]: −12.00
ISS7 Mean (SD) [8]: 9.00 (NC)
ISS7 Median [8]: 9.00
ISS7 Percent change from baseline Mean (SD) [8]: −57.14 (NC) %
ISS7 Percent change from baseline Median [8]: −57.14%
ISS7 Change from baseline Mean (SD) [9]: −9.23 (5.92)
ISS7 Change from baseline Median [9]: −9.00
ISS7 Mean (SD) [9]: 6.99 (5.53)
ISS7 Median [9]: 7.00
ISS7 Percent change from baseline Mean (SD) [9]: −56.08 (33.60) %
ISS7 Percent change from baseline Median [9]: −60.00%
ISS7 Change from baseline Mean (SD) [10]: −12.58 (8.36)
ISS7 Change from baseline Median [10]: −13.75
ISS7 Mean (SD) [10]: 4.42 (6.99)
ISS7 Median [10]: 1.75
ISS7 Percent change from baseline Mean (SD) [10]: −71.13 (37.09) %
ISS7 Percent change from baseline Median [10]: −87.50%
ISS7 Change from baseline Mean (SD) [11]: −7.40 (6.12)
ISS7 Change from baseline Median [11]: −7.00
ISS7 Mean (SD) [11]: 8.09 (6.95)
ISS7 Median [11]: 7.00
ISS7 Percent change from baseline Mean (SD) [11]: −49.06 (38.85) %
ISS7 Percent change from baseline Median [11]: −45.00%
ISS7 Change from baseline Mean (SD) [12]: −13.50 (9.33)
ISS7 Change from baseline Median [12]: −16.50
ISS7 Mean (SD) [12]: 4.50 (9.00)
ISS7 Median [12]: 0.00
ISS7 Percent change from baseline Mean (SD) [12]: −75.00 (50.00) %
ISS7 Percent change from baseline Median [12]: −100.00%
ISS7 Change from baseline Mean (SD) [13]: −5.69 (4.72)
ISS7 Change from baseline Median [13]: −5.33
ISS7 Median [13]: 11.60
ISS7 Percent change from baseline Mean (SD) [13]: −33.81 (26.94) %
ISS7 Percent change from baseline Median [13]: −32.64%
ISS7 Change from baseline Mean (SD) [14]: −14.00 (NC)
ISS7 Change from baseline Median [14]: −14.00
ISS7 Mean (SD) [14]: 7.00 (NC)
ISS7 Median [14]: 7.00
ISS7 Change from baseline Mean (SD) [15]: −10.27 (6.02)
ISS7 Change from baseline Median [15]: −10.33
ISS7 Mean (SD) [15]: 5.77 (5.26)
ISS7 Median [15]: 7.00
ISS7 Percent change from baseline Mean (SD) [15]: −62.66 (31.72) %
ISS7 Percent change from baseline Median [15]: −57.19%
ISS7 Change from baseline Mean (SD) [16]: −13.00 (9.27)
ISS7 Change from baseline Median [16]: −17.00
ISS7 Mean (SD) [16]: 4.60 (7.80)
ISS7 Median [16]: 0.00
ISS7 Percent change from baseline Mean (SD) [16]: −70.36 (41.41) %
ISS7 Percent change from baseline Median [16]: −100.00%
